From patent US5624917A, “Method of inhibiting squalene synthetase” (Takeda Chemical Industries, Ltd., priority 1991, dated 1997)

Legend:
[1] = molecular target: T1, squalene synthetase (Rattus norvegicus, UniProt Q02769); assay: Squalene synthetase inhibitory activity, rat enzyme (rat liver microsome fraction); type: biochemical; details: 5 μM [1-3H]farnesylpyrophosphoric acid, pH 7.4, 37° C., 45 minutes, read-out: IC50, squalene synthetase inhibitory activity, Rat enzyme
T1 construct: from tissue; host or cells: liver of male SD rats (microsome fraction)
T1 sequence (Q02769 1-416): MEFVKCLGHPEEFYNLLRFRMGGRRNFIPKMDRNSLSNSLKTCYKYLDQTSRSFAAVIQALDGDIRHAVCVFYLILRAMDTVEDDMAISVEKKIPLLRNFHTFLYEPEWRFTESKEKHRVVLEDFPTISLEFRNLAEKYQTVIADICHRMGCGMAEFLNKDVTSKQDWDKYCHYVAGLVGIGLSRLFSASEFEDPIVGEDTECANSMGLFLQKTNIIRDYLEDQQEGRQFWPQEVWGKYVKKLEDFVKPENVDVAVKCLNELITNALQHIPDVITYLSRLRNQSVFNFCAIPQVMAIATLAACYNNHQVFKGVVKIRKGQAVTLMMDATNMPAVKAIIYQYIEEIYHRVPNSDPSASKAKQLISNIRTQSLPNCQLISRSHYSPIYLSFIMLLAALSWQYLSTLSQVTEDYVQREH
Protocol: (§1) Squalene synthetase inhibitory activity and cholesterol biosynthesis inhibitory activity of the compounds used in the present invention were determined by the following method.
(§2) Determination of squalene synthetase inhibitory activity
(§3) The squalene synthetase inhibitory activity was determined as follows by using the enzyme solutions shown in Experiments 1 and 2 below.
(§4) Each enzyme solution (Protein: 0.8 μg) prepared in Experiments 1 and 2 was added to a solution (total amount: 50 μl) containing 5 μM[1-^3 H]farnesylpyrophosphoric acid (Specific activity 25 μCi/μmole), 1 mM NADPH, 5 mM MgCl2, 6 mM glutathione, 100 mM potassium phosphate buffer (pH 7.4) and a drug to be tested (which was added as a solution thereof in water or DMSO). The mixture was allowed to react at 37° C. for 45 minutes. A mixture (150 μl) of chloroform and methanol (1:2) was added to stop the reaction. Then, chloroform (50 μl) and 3N sodium hydroxide solution (50 μl) were added. The chloroform layer (under layer, 50 μl) containing the reaction products in which the major component was squalene was mixed with toluene liquid scintillator (3 ml). The radioactivity was measured with a liquid scintillation counter.
(§5) The squalene synthetase inhibitory activity is indicated by the concentration (IC50, molarity(M)) which inhibits the radioactivity incorporated into the chloroform layer by 50%.
Preparation of rat enzyme
SD-Male rats (6 weeks old) were bled to death followed by removal of liver. The liver (ca. 10 g) was washed with ice-cooled physiological saline, homogenized in an ice-cooled buffer solution (15 ml) [100 mM potassium phosphate (pH 7.4), 15 mM nicotinamide, 2 mM MgCl2 ] and centrifuged at 10,000×g for 20 minutes (4° C.). The resulting supernatant was further centrifuged at 105,000×g for 90 minutes (4° C.). Then, the deposit was suspended in an ice-cooled 100 mM potassium phosphate buffer solution (pH 7.4) and centrifuged at 105,000×g for 90 minutes (4° C.) again. The deposit (microsome fraction) thus obtained was suspended in an ice-cooled 100 mM potassium phosphate buffer solution (pH 7.4) so that the protein concentration became about 40 mg/ml (measured with BCA Protein Assay Kit (Pias)), and the suspension was used as the enzyme solution.

[2] = molecular target: T2, squalene synthetase (Homo sapiens, UniProt P37268); assay: Squalene synthetase inhibitory activity, human enzyme (HepG2 microsome fraction); type: biochemical; details: human hepatoma HepG2 microsome fraction; 5 μM [1-3H]farnesylpyrophosphoric acid, pH 7.4, 37° C., 45 minutes; read-out: IC50, squalene synthetase inhibitory activity, Human enzyme
T2 construct: From the resulting sonicate, microsome fraction was obtained according to the same manner as that described in Experiment 1; endogenous in cells; host or cells: HepG2 human hepatoma cells (microsome fraction)
T2 sequence (P37268 1-417): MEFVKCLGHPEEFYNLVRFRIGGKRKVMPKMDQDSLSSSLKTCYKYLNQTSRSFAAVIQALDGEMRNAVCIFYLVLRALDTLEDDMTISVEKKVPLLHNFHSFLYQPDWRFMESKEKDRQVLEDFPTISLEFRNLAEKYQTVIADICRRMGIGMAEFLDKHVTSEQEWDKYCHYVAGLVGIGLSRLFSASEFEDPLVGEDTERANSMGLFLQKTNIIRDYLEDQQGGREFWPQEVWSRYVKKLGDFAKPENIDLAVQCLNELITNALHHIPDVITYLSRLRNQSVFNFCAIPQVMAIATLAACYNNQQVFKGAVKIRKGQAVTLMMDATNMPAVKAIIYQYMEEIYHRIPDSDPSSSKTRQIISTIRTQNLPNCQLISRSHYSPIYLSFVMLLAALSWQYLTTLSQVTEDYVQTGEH
Protocol: as §1, §2, §3, §4, §5
Preparation of human enzyme
Cultivation was carried out on Dulbecco modified Eagle medium containing 10% bovine fetal serum in the presence of 5% CO2 at 37° C. The human hepatoma cells HepG2 (ca. 1×10^9 cells) were suspended in an ice-cooled buffer solution (10 ml) [100 mM potassium phosphate (pH 7.4), 30 mM nicotinamide, 2.5 mM MgCl2 ], and the cells were crushed by ultrasonication (30 seconds, twice). From the resulting sonicate, microsome fraction was obtained according to the same manner as that described in Experiment 1. This microsome fraction was suspended in an ice-cooled 100 mM potassium phosphate buffer solution (pH 7.4) so that the protein concentration became about 4 mg/ml, and this suspension was used as the enzyme liquid.

[3] = tested on: cholesterol biosynthesis; assay: Cholesterol biosynthesis inhibitory activity: cholesterol synthesis from [2-14C] acetic acid in rat liver slices; type: cell-based; details: for effect on cholesterol synthesis from [2-14C] acetic acid (in words): 20 μM; for activity at 20 µM: 37° C., 2 hours, No addition = 100 ± 0
Protocol: as §1
Determination of cholesterol biosynthesis Inhibitory activity
The liver was excised from Sprague-Dawley rat (6 weeks old, male) under full feeding and sliced into 500 μm in thickness. The slices of liver (150-200 mg) and KHB buffer solution (1 ml) containing 0.5 μCi [2-^14 C] acetic acid and various concentrations of test compounds were incubated at 37° C. for 2 hours. Cholesterol was extracted from the reaction mixture. The amount of cholesterol synthesized from the labeled acetic acid was measured, and the inhibitory ratio was calculated in comparison with the synthesized amount in the case of no addition of the test compounds.
The effect of Compound No. 22 (Example 39 described in Japanese Patent Application No. 3-151484) (added in 20 μM), 67, 74 and 75 on cholesterol synthesis from [2-^14 C] acetic acid in assay using liver slices of rats was observed.

SMILES | IC50 [1] [µM] | IC50 [2] [µM] | effect on cholesterol synthesis from [2-14C] acetic acid (in words) [3] | activity at 20 µM [3] [%]
O=P(O)(O)C(NCCCCCCSc1ccccc1)P(=O)(O)O [compound 22] | – | – | significant inhibition of cholesterol biosynthesis | 52.9 ± 10
O=P(O)(O)C(NCCCCCCSc1nccs1)P(=O)(O)O [compound 74] | – | – | significant inhibition of cholesterol biosynthesis | 35.8 ± 0.8
Cc1nnc(SCCCCCCNC(P(=O)(O)O)P(=O)(O)O)s1 [compound 75] | – | – | significant inhibition of cholesterol biosynthesis | 50 ± 7.9

More lines, main results first:

IC50 [1] [µM] | IC50 [2] [µM] | SMILES | effect on cholesterol synthesis from [2-14C] acetic acid (in words) [3] | activity at 20 µM [3] [%]
0.0087 | 0.0093 | COc1ccc(CSCCCCCCNC(P(=O)(O)O)P(=O)(O)O)cc1 [compound 67] | significant inhibition of cholesterol biosynthesis | 43.4 ± 5
0.019 | 0.014 | O=P(O)(O)C(NCCCCOc1ccc2c(c1)OCO2)P(=O)(O)O [compound 13] | – | –
0.068 | 0.11 | CCSCCCCCNC(P(=O)(O)O)P(=O)(O)O [compound 8] | – | –
